In US20080194585A1, “Fungicidal Pyrazine Derivatives” (priority 2005, published 2008):
Marks after values point to notes of the source that are not given here.

How the values were obtained:
Plasmopara viticola = test: Test D: grape downy mildew, spray after inoculation of grape seedlings; format: in vivo
From the text: Upon removal, disease ratings were made. […] A dash (-) indicates no test results.

Phytophthora infestans = test: whole plant or invertebrate; format: in vivo
Septoria tritici = test: Test J: wheat leaf blotch, preventive spray on wheat seedlings; format: in vivo
From the text: A dash (-) indicates no test results.

[1] = test system: Puccinia recondita f. sp. tritici; test: Test K: wheat leaf rust, preventive spray on wheat seedlings
Botrytis cinerea = test: Test E: tomato botrytis, preventive spray on tomato seedlings
Septoria nodorum = test: Test H: wheat glum blotch, preventive spray on wheat seedlings
Procedure: (the causal agent of wheat glum blotch) and incubated in a saturated atmosphere at 20° C. for 48 h, and then moved to a growth chamber at 22° C. for 5 days, after which disease ratings were made.

[2] = test system: Erysiphe graminis f. sp. tritici; test: Test L: wheat powdery mildew, preventive spray on wheat seedlings
Sclerotinia sclerotiorum = test: Test C: cucumber white mold, preventive spray on cucumber seedlings
Pythium aphanidermatum = test: Test A: bluegrass pythium blight, preventive spray on bluegrass seedlings
Rhizoctonia oryzae = test: Test G: turf brown patch, preventive spray on creeping bent grass seedlings
Procedure: (the causal agent of turf brown patch) and incubated in a saturated atmosphere at 27° C. for 24 h, and then moved to a growth chamber at 27° C. for 5 days, after which disease ratings were made.

[3] = test system: Colletotrichum orbiculare; test: Test B: cucumber Colletotrichum anthracnose, preventive spray on cucumber seedlings
fusarium graminearium = test: Test I: wheat head scab, preventive spray on wheat seedlings; settings: 100 = 100% disease control
Procedure: (the causal agent of wheat head scab) and incubated in a saturated atmosphere at 20° C. for 72 h, and then moved to a growth chamber at 22° C. for 5 days, after which disease ratings were made.

[4] = 40 ppm (marked *), 100 = 100% disease control, 0 = no control
[5] = 200 ppm, 100 = 100% disease control, 0 = no control relative to controls
[6] = 200 ppm, 0 = no control relative to controls

## Cc1ccc(-c2nc(Cl)c(-c3c(F)cccc3F)n(CC(C)C)c2=O)nc1 [Compound 209, 5-Chloro-6-(2,6-difluorophenyl)-1-(2-methylpropyl)-3-(5-methyl-2-pyridinyl)-2(1H)-pyrazinone]
Plasmopara viticola; Plasmopara viticola, 168 h, 200 ppm, read-out: Test D disease control rating
  pest or weed control at 200 ppm: 8%
Phytophthora infestans; Phytophthora infestans, in Solanum lycopersicum, topical, 144 h, read-out: Test F disease control rating
  pest or weed control at 200 ppm: 0%
Septoria tritici; Zymoseptoria tritici, 528 h, 200 ppm, read-out: Test J disease control rating
  pest or weed control at 200 ppm: 96%
[1]; Puccinia recondita, in Triticum aestivum, 192 h, read-out: Test K disease control rating
  pest or weed control at 200 ppm: 85%
Botrytis cinerea; Botrytis cinerea, in Solanum lycopersicum, topical, 72 h, read-out: Test E disease control rating
  pest or weed control at 200 ppm: 99%
Septoria nodorum; Parastagonospora nodorum, in Triticum aestivum, topical, 168 h, read-out: Test H disease control rating, 200 ppm
  pest or weed control at 200 ppm: 0%
[2]; Blumeria graminis, in Triticum aestivum, 168 h, read-out: Test L disease control rating, 200 ppm
  pest or weed control at 200 ppm: 0%
Sclerotinia sclerotiorum; Sclerotinia sclerotiorum, in Cucumis sativus, 168 h, read-out: Test C disease control rating, 200 ppm
  pest or weed control at 200 ppm: 0%
Pythium aphanidermatum; Pythium aphanidermatum, 120 h, read-out: Test A disease control rating
  pest or weed control at 200 ppm: 56%
Rhizoctonia oryzae; Waitea circinata, in Agrostis stolonifera, topical, 144 h, read-out: Test G disease control rating, 200 ppm
  pest or weed control at 200 ppm: 34%
[3]; Colletotrichum orbiculare, in Cucumis sativus, 144 h, read-out: Test B disease control rating, 200 ppm
  pest or weed control at 200 ppm: 54%

## CCC(C)n1c(-c2c(F)cccc2F)c(Cl)nc(-n2cncn2)c1=O (centres unmarked) [compound 32]
Plasmopara viticola; 200 ppm
  Test D disease control rating: 15%
Phytophthora infestans; 200 ppm
  Test F disease control rating: 0%
Septoria tritici; 200 ppm
  Test J disease control rating: 32%
[1]; 200 ppm
  Test K disease control rating: 100%
Botrytis cinerea; 200 ppm
  Test E disease control rating: 100%
Septoria nodorum; 200 ppm
  Test H disease control rating: 100%
[2]; 200 ppm
  Test L disease control rating: 0%
Sclerotinia sclerotiorum; 200 ppm
  Test C disease control rating: 95%
Pythium aphanidermatum; 200 ppm
  Test A disease control rating: 0%
Rhizoctonia oryzae; 200 ppm
  Test G disease control rating: 92%
[3]; 200 ppm
  Test B disease control rating: 0%

## CC(C)n1c(-c2c(F)cccc2F)c(Cl)nc(-n2cncn2)c1=O [compound 33]
Plasmopara viticola; 200 ppm
  Test D disease control rating: 34%
Phytophthora infestans; 200 ppm
  Test F disease control rating: 0%
Septoria tritici; 200 ppm
  Test J disease control rating: 100%
[1]; 200 ppm
  Test K disease control rating: 100%
Botrytis cinerea; 200 ppm
  Test E disease control rating: 100%
Septoria nodorum; 200 ppm
  Test H disease control rating: 100%
[2]; 200 ppm
  Test L disease control rating: 0%
Sclerotinia sclerotiorum; 200 ppm
  Test C disease control rating: 16%
Pythium aphanidermatum; 200 ppm
  Test A disease control rating: 0%
Rhizoctonia oryzae; 200 ppm
  Test G disease control rating: 100%
[3]; 200 ppm
  Test B disease control rating: 0%

## CCCn1c(-c2c(F)cccc2F)c(Cl)nc(-n2cncn2)c1=O [compound 34]
Plasmopara viticola; 200 ppm
  Test D disease control rating: 10%
Phytophthora infestans; 200 ppm
  Test F disease control rating: 26%
Septoria tritici; 200 ppm
  Test J disease control rating: 97%
[1]; 200 ppm
  Test K disease control rating: 99%
Botrytis cinerea; 200 ppm
  Test E disease control rating: 100%
Septoria nodorum; 200 ppm
  Test H disease control rating: 100%
[2]; 200 ppm
  Test L disease control rating: 89%
Sclerotinia sclerotiorum; 200 ppm
  Test C disease control rating: 16%
Pythium aphanidermatum; 200 ppm
  Test A disease control rating: 0%
Rhizoctonia oryzae; 200 ppm
  Test G disease control rating: 100%
[3]; 200 ppm
  Test B disease control rating: 0%

## CC(C)CCn1c(-c2c(F)cccc2F)c(Cl)nc(-n2cccn2)c1=O [compound 35]
Plasmopara viticola; 200 ppm
  Test D disease control rating: 5%
Phytophthora infestans; 200 ppm
  Test F disease control rating: 0%
Septoria tritici; 200 ppm
  Test J disease control rating: 100%
[1]; 200 ppm
  Test K disease control rating: 88%
Botrytis cinerea; 200 ppm
  Test E disease control rating: 100%
Septoria nodorum; 200 ppm
  Test H disease control rating: 100%
[2]; 200 ppm
  Test L disease control rating: 97%
Sclerotinia sclerotiorum; 200 ppm
  Test C disease control rating: 0%
Pythium aphanidermatum; 200 ppm
  Test A disease control rating: 0%
Rhizoctonia oryzae; 200 ppm
  Test G disease control rating: 90%
[3]; 200 ppm
  Test B disease control rating: 0%

## C=CCn1c(-c2c(F)cccc2F)c(Cl)nc(-n2cccn2)c1=O [compound 58]
Plasmopara viticola; 200 ppm
  Test D disease control rating: 47%
Phytophthora infestans; 200 ppm
  Test F disease control rating: 0%
Septoria tritici; 200 ppm
  Test J disease control rating: 98%
[1]; 200 ppm
  Test K disease control rating: 100%
Botrytis cinerea; 200 ppm
  Test E disease control rating: 100%
Septoria nodorum; 200 ppm
  Test H disease control rating: 100%
[2]; 200 ppm
  Test L disease control rating: 99%
Sclerotinia sclerotiorum; 200 ppm
  Test C disease control rating: 0%
Pythium aphanidermatum; 200 ppm
  Test A disease control rating: 0%
Rhizoctonia oryzae; 200 ppm
  Test G disease control rating: 92%
[3]; 200 ppm
  Test B disease control rating: 99%

## CC(C)Cn1c(-c2c(F)cccc2F)c(Cl)nc(-c2ccncc2)c1=O [compound 84]
Plasmopara viticola; 40 ppm (*)
  Test D disease control rating: 5* %
Phytophthora infestans; 40 ppm (*)
  Test F disease control rating: 0* %
Septoria tritici; 40 ppm (*)
  Test J disease control rating: 20* %
[1]; 40 ppm (*)
  Test K disease control rating: 0* %
Botrytis cinerea; 40 ppm (*)
  Test E disease control rating: 0* %
Septoria nodorum; 40 ppm (*)
  Test H disease control rating: 0* %
[2]; 40 ppm (*)
  Test L disease control rating: 0* %
Sclerotinia sclerotiorum; 40 ppm (*)
  Test C disease control rating: 0* %
Pythium aphanidermatum; 40 ppm (*)
  Test A disease control rating: 0* %
Rhizoctonia oryzae; 40 ppm (*)
  Test G disease control rating: 0* %
[3]; 40 ppm (*)
  Test B disease control rating: 0* %

## COCCn1c(-c2c(F)cccc2F)c(Cl)nc(-n2cccn2)c1=O [compound 95]
Plasmopara viticola; 200 ppm
  Test D disease control rating: 92%
Phytophthora infestans; 200 ppm
  Test F disease control rating: 0%
Septoria tritici; 200 ppm
  Test J disease control rating: 95%
[1]; 200 ppm
  Test K disease control rating: 94%
Botrytis cinerea; 200 ppm
  Test E disease control rating: 99%
Septoria nodorum; 200 ppm
  Test H disease control rating: 100%
[2]; 200 ppm
  Test L disease control rating: 0%
Sclerotinia sclerotiorum; 200 ppm
  Test C disease control rating: 0%
Pythium aphanidermatum; 200 ppm
  Test A disease control rating: 0%
Rhizoctonia oryzae; 200 ppm
  Test G disease control rating: 68%
[3]; 200 ppm
  Test B disease control rating: 0%

## CC(C)Cn1c(-c2c(Cl)cc(C(F)(F)F)cc2Cl)c(Cl)nc(-n2cccn2)c1=O [compound 391]
Plasmopara viticola; [4]
  Test D disease control rating: 0* %
Phytophthora infestans; [4]
  Test F disease control rating: 0* %
Septoria tritici; [4]
  Test J disease control rating: 33* %
Fusarium graminearium; 40 ppm (marked *), 0 = no control
  Test I disease control rating: 0* %
[1]; [4]
  Test K disease control rating: 88* %
Botrytis cinerea; [4]
  Test E disease control rating: 0* %
Septoria nodorum; [4]
  Test H disease control rating: 0* %
[2]; [4]
  Test L disease control rating: 0* %
Pythium aphanidermatum; [4]
  Test A disease control rating: 0* %
Rhizoctonia oryzae; [4]
  Test G disease control rating: 0* %
[3]; [4]
  Test B disease control rating: 0* %

## CCC(C)Cn1c(-c2c(F)cc(F)cc2F)c(Cl)nc(C(=O)NOC)c1=O (centres unmarked) [compound 417]
Plasmopara viticola; [5]
  Test D disease control rating: 86%
Phytophthora infestans; [5]
  Test F disease control rating: 93%
Septoria tritici; [5]
  Test J disease control rating: 0%
Fusarium graminearium; [6]
  Test I disease control rating: 0%
[1]; [4]
  Test K disease control rating: 100* %
Botrytis cinerea; [4]
  Test E disease control rating: 99* %
Septoria nodorum; [4]
  Test H disease control rating: 60* %
[2]; [5]
  Test L disease control rating: 76%
Pythium aphanidermatum; [5]
  Test A disease control rating: 0%
Rhizoctonia oryzae; [4]
  Test G disease control rating: 0* %
[3]; [4]
  Test B disease control rating: 71* %

## CC(=O)Nc1nc(Cl)c(-c2c(F)cccc2F)n(CC(C)C)c1=O [compound 423]
Plasmopara viticola; [5]
  Test D disease control rating: 0%
Phytophthora infestans; [5]
  Test F disease control rating: 0%
Septoria tritici; [4]
  Test J disease control rating: 46* %
Fusarium graminearium; [6]
  Test I disease control rating: 60%
[1]; [5]
  Test K disease control rating: 97%
Botrytis cinerea; [5]
  Test E disease control rating: 100%
Septoria nodorum; [5]
  Test H disease control rating: 0%
[2]; [5]
  Test L disease control rating: 97%
Pythium aphanidermatum; [5]
  Test A disease control rating: 0%
Rhizoctonia oryzae; [5]
  Test G disease control rating: 95%
[3]; [5]
  Test B disease control rating: 0%

## Cc1nc(C#N)c(=N)n(CC(C)C)c1-c1ccc(F)cc1F [compound 425]
Plasmopara viticola; [5]
  Test D disease control rating: 0%
Phytophthora infestans; [5]
  Test F disease control rating: 16%
Septoria tritici; [5]
  Test J disease control rating: 3%
Fusarium graminearium; [6]
  Test I disease control rating: 0%
[1]; [5]
  Test K disease control rating: 0%
Botrytis cinerea; [5]
  Test E disease control rating: 0%
Septoria nodorum; [5]
  Test H disease control rating: 0%
[2]; [5]
  Test L disease control rating: 0%
Pythium aphanidermatum; [5]
  Test A disease control rating: 0%
Rhizoctonia oryzae; [5]
  Test G disease control rating: 0%
[3]; [5]
  Test B disease control rating: 0%

## Cc1nc(C(N)=O)c(=N)n(CC(C)C)c1-c1ccc(F)cc1F [compound 427]
Plasmopara viticola; [5]
  Test D disease control rating: 0%
Phytophthora infestans; [5]
  Test F disease control rating: 0%
Septoria tritici; [5]
  Test J disease control rating: 0%
Fusarium graminearium; [6]
  Test I disease control rating: 0%
[1]; [5]
  Test K disease control rating: 0%
Botrytis cinerea; [5]
  Test E disease control rating: 0%
Septoria nodorum; [5]
  Test H disease control rating: 0%
[2]; [5]
  Test L disease control rating: 0%
Pythium aphanidermatum; [5]
  Test A disease control rating: 0%
Rhizoctonia oryzae; [5]
  Test G disease control rating: 0%
[3]; [5]
  Test B disease control rating: 0%

## CCC(C)Cn1c(-c2ccc(F)cc2F)c(C)nc(C(N)=O)c1=N (centres unmarked) [compound 428]
Plasmopara viticola; [5]
  Test D disease control rating: 0%
Phytophthora infestans; [5]
  Test F disease control rating: 0%
Septoria tritici; [5]
  Test J disease control rating: 87%
Fusarium graminearium; [6]
  Test I disease control rating: 0%
[1]; [5]
  Test K disease control rating: 95%
Botrytis cinerea; [5]
  Test E disease control rating: 49%
Septoria nodorum; [5]
  Test H disease control rating: 0%
[2]; [5]
  Test L disease control rating: 0%
Pythium aphanidermatum; [5]
  Test A disease control rating: 0%
Rhizoctonia oryzae; [5]
  Test G disease control rating: 0%
[3]; [5]
  Test B disease control rating: 0%

## CC(C)Cn1c(-c2ccc(F)cc2F)c(F)nc(C(N)=O)c1=N [compound 429]
Plasmopara viticola; [5]
  Test D disease control rating: 0%
Phytophthora infestans; [5]
  Test F disease control rating: 0%
Septoria tritici; [5]
  Test J disease control rating: 0%
Fusarium graminearium; [6]
  Test I disease control rating: 62%
[1]; [5]
  Test K disease control rating: 0%
Botrytis cinerea; [5]
  Test E disease control rating: 0%
Septoria nodorum; [5]
  Test H disease control rating: 0%
[2]; [5]
  Test L disease control rating: 0%
Pythium aphanidermatum; [5]
  Test A disease control rating: 88%
Rhizoctonia oryzae; [5]
  Test G disease control rating: 0%
[3]; [5]
  Test B disease control rating: 0%

## CC(=O)N=c1c(C#N)nc(C)c(-c2ccccc2)n1CC(C)C [compound 431]
Plasmopara viticola; [5]
  Test D disease control rating: 46%
Phytophthora infestans; [5]
  Test F disease control rating: 0%
Septoria tritici; [5]
  Test J disease control rating: 0%
Fusarium graminearium; [6]
  Test I disease control rating: 28%
[1]; [5]
  Test K disease control rating: 32%
Botrytis cinerea; [5]
  Test E disease control rating: 37%
Septoria nodorum; [5]
  Test H disease control rating: 0%
[2]; [5]
  Test L disease control rating: 0%
Pythium aphanidermatum; [5]
  Test A disease control rating: 88%
Rhizoctonia oryzae; [5]
  Test G disease control rating: 16%
[3]; [5]
  Test B disease control rating: 0%
